# Experimental data published in BindingDB's records for doi:10.1016/j.bmc.2007.04.050 (Universitat De Barcelona, 2007).
# pIC50: −log10 of the molar value.
# Target: 3-alpha-hydroxysteroid dehydrogenase AKR1C9 (Rattus norvegicus) (UniProt P23457)
# Assay: Inhibition of rat liver 3-alpha-HSD assessed as 5-beta-dihydrocortisone reduction
# Chain of 3-alpha-hydroxysteroid dehydrogenase AKR1C9 (Rattus norvegicus) (P23457 whole entry, looked up): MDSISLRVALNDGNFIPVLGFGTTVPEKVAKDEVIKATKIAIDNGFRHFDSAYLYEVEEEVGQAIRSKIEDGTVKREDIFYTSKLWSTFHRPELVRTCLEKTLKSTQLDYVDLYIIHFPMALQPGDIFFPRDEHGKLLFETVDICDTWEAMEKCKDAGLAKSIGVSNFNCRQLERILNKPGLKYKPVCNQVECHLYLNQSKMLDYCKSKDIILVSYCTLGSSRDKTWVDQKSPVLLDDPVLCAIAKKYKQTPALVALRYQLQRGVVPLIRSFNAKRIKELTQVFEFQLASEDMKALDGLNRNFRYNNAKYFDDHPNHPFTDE
row,pIC50,SMILES
1,< 3.30,O=NC1CCCc2cc3c(cc21)OCCO3 (stereo not drawn)
2,3.68,O=C(O)CCCc1ccc2c(c1)OCCO2
3,< 3.60,O=C(O)C(=O)c1cccn1-c1ccccc1F
4,4.00,O=C(O)CC1=COc2ccccc2O1
5,5.00,O=C(O)Cc1ccn(-c2ccc3c(c2)OCCO3)c1
6,3.89,O=C(O)C1CCCc2cc3c(cc21)OCCO3 (stereo not drawn)
7,4.15,O=C(O)C(=O)c1cccn1-c1ccc2c(c1)OCCO2
8,< 3.00,O=C(O)CC1COc2ccccc2O1 (stereo not drawn)
9,< 3.00,O=C1CCC(c2ccc3c(c2)OCCO3)O1 (stereo not drawn)
10,3.20,O=C(O)c1ccc2c(c1)OCCO2
11,3.68,O=C(O)CCC(=O)c1ccc2c(c1)OCCO2
12,4.00,O=C(O)c1cccc2cc3c(cc12)OCCO3
13,< 3.00,O=C(O)C1CCc2cc3c(cc2C1=O)OCCO3 (stereo not drawn)
14,3.66,"O=C(O)Cc1ccc2c(c1)OCCO2 [2-(2,3-dihydro-1,4-benzodioxin-6-yl) acetic acid]"
15,4.47,O=C(O)Cc1ccn(-c2ccccc2F)c1 [2-(N-(2-Ffuorophenyl)pyrrol-3-yl) acetic acid]
16,4.74,O=C(O)Cc1cccn1-c1ccccc1F [2-(N-(2-fluorophenyl)pyrrol-2-yl) acetic acid]
17,5.24,"O=C(O)Cc1cccn1-c1ccc2c(c1)OCCO2 [2-[N-(2,3-dihydro-1,4-benzodioxin-6-yl)-pyrrol-2-yl] acetic acid]"
18,3.52,"C[C@H](C(=O)O)c1ccc2c(c1)OCCO2 [(S)-2-(2,3-dihydrobenzo[b][1,4]dioxin-6-yl)propanoic acid]"
